Measured values taken from patent US8012944B2, “Method for treating cancer using IAP antisense oligomer and chemotherapeutic agent” (Pharmascience Inc., priority 2003, dated 2011).

Tests used:
Type in all cases: cell-based, human
survivin protein = experiment: Survivin protein after APO 2 treatment; conditions: after oligo treatment
HIAP1 protein = HIAP1 protein in cycloheximide-induced SF295 cells (western blot)
Text: HIAP1 was detected on a western immunoblot using an affinity-purified anti-rat HIAP1 rabbit polyclonal antibody as a primary antibody and was detected by ECL (Amersham) on X-ray film with a secondary horseradish-peroxidase-conjugated anti-rabbit Ig antibody and a chemiluminescent substrate. The anti-HIAP1 polyclonal antibody is raised against a GST-fusion of the rat HIAP1. This antibody cross-reacts with both human and murine HIAP1 and HIAP2.
(§1) The effect of HIAP1 antisense nucleobase oligomers on HIAP1 protein and mRNA expression was also examined in cells induced to express HIAP1. SF295 cells were transfected with oligonucleotides, or were mock transfected. The transfected cells were then treated with 10 μg/ml cycloheximide for 24 hours to induce 70 kDa HIAP1 mRNA and protein. Protein levels were measured by western blot analysis with an anti-HIAP1 polyclonal antibody, and normalized against actin protein in a re-probing of the same blots. The densitometric scan results were plotted against the mock results (set at 100%) in FIG. 22B. […] The transfection process itself (e.g., mock or scrambled survivin) induces HIAP1 protein compared to the untreated sample as shown on the western immunoblot.

HIAP1 mRNA [1] = experiment: HIAP1 mRNA in SF295 cells, basal conditions (TaqMan); design: decrease of HIAP1 mRNA compared to mock or scrambled survivin control: concentration or dose not given beside the values; conditions: for HIAP1 mRNA levels (in words): SF295 cells (FIG. 21)
Experimental: RNA was extracted from cells lysed in RLT buffer (QIAGEN, Valencia, Calif.), and purified using QIAGEN RNeasy columns/kits. Real-time quantitative PCR was performed on a Perkin-Elmer ABI 7700 Prism PCR machine. RNA was reverse transcribed and amplified according to the TaqMan Universal PCR Master Mix protocol of PE Biosystems, using primers and probes designed to specifically recognize XIAP, HIAP1, survivin, or GAPDH. For human survivin, the forward primer was 5′-[…]-3′ (SEQ ID NO: 263), the reverse primer was 5′-GAAAGGAAAGCGCAACCG-3′ (SEQ ID NO: 264), and the probe was 5′-(FAM)[…](TAMRA)-3′ (SEQ ID NO: 265). For human HIAP1, the forward primer was 5′-[…]-3′ (SEQ ID NO: 266), the reverse primer was 5′-[…]-3′ (SEQ ID NO: 267), and the probe was 5′-(FAM)[…](TAMRA)-3′ (SEQ ID NO: 268). For human XIAP, the forward primer was 5′-[…]-3′ (SEQ ID NO: 269), the reverse primer was 5′-[…]-3′ (SEQ ID NO: 270), and the probe was 5′-(FAM)[…](TAMRA)-3′ (SEQ ID NO: 271). For human GAPDH, the forward primer was 5′-GAAGGTGAAGGTCGGAGTC-3′ (SEQ ID NO: 272), the reverse primer was 5′-GAAGATGGTGATGGGATTC-3′ (SEQ ID NO: 273), and the probe was 5′-(JOE)[…](TAMRA)-3′ (SEQ ID NO: 274). FAM is 6-carboxyfluoroscein, JOE is 6-carboxy-4,5-dichloro-2,7-dimethoxyfluoroscein, and TAMRA is 6-carboxy-N,N,N′,N′-tetramethylrhodamine. FAM and JOE are 5′ reporter dyes, while TAMRA is a 3′ quencher dye.
Relative quantification of gene expression was performed as described in the PE Biosystems manual using GAPDH as an internal standard. The comparative Ct (cycle threshold) method was used for relative quantitation of IAP mRNA levels compared to GAPDH mRNA levels. Briefly, real-time fluorescence measurements were taken at each PCR cycle and the threshold cycle (Ct) value for each sample was calculated by determining the point at which fluorescence exceeded a threshold limit of 30 times the baseline standard deviation. The average baseline value and the baseline SD are calculated starting from the third cycle baseline value and stopping at the baseline value three cycles before the signal starts to exponentially rise. The PCR primers and/or probes for the specific IAPs were designed to span at least one exon-intron boundary separated by 1 kb or more of genomic DNA, to reduce the possibility of amplifying and detecting genomic DNA contamination. The specificity of the signal, and possible contamination from DNA, were verified by treating some RNA samples with either DNase or RNase, prior to performing the reverse transcription and PCR reaction steps.
A library of 15 HIAP1 antisense nucleobase oligomers as oligonucleotides was screened for protein knock-down by western blot analysis and for RNA knock-down by TaqMan, using the primers and probes described in Example 3, above, under two different conditions. HIAP1 RNA levels may be detected using standard Northern blot analyses or RT-PCR techniques. The antisense oligonucleotides were administered to cells under basal conditions or under cycloheximide-induction conditions (24 hour treatment with sub-toxic doses). Cycloheximide (CHX) can lead to a 10- to 200-fold induction of HIAP1 mRNA depending on the cell line treated. […] This effect of CHX is via two distinct mechanisms of action. First, CHX activates NFkB, a known transcriptional inducer of HIAP1, by blocking the de novo synthesis of a labile protein, IkB, which is an inhibitor of NFkB. This effect is mimicked by puromycin, another protein synthesis inhibitor, and by TNF-alpha, which induces a signaling cascade leading to the phosphorylation, ubiquination, and degradation of IkB.
SF295 glioblastoma cells were transfected with lipofectin and oligonucleotide (scrambled survivin, no oligonucleotide, antisense APO 1 to APO 15) or left untreated. […]

HIAP1 mRNA [2] = experiment: HIAP1 mRNA in SF295 cells under cycloheximide induction (TaqMan)
Experimental: as §1
Controls for this experiment were three oligonucleotides for APO 2: one scrambled sequence (same base composition but random order, 5′-AAGGGCGGCGGAGTGAGAC-3′; SEQ ID NO: 297), one reverse polarity (same base composition, same sequential order but in the opposite direction, 5′-AGAGGACGGAGTCGGAGGC-3′; SEQ ID NO: 298), and one mismatch sequence (containing four base mismatches out of 19 bases, 5′-CGGAGCGTGAGGATGGAGA-3′; SEQ ID NO: 299).

SF295 cells = experiment: Cytotoxicity of HIAP1 oligonucleotides measured by total protein; conditions: FIG. 23
Text: FIG. 23 is a graph showing the effects of HIAP1 oligonucleotides on cytotoxicity, as measured by total protein.

Row | Sequence | loss of survivin protein (specificity) (survivin protein) | activity in the HIAP1 protein and mRNA assays (HIAP1 protein) | HIAP1 mRNA levels (in words) (HIAP1 mRNA [1]) | decrease of HIAP1 mRNA compared to mock or scrambled survivin control (HIAP1 mRNA [1]; SF295 cells, six hours after transfection) | effect on HIAP1 mRNA (and protein) under CHX induction (in words) (HIAP1 mRNA [2]) | decrease in HIAP1 mRNA compared to scrambled survivin control (HIAP1 mRNA [2]; cycloheximide induction conditions, 6 hours after transfection) | toxicity seen as general decrease in total protein (SF295 cells)
1 | CGGAGGCTGAGGCAGGAGA (CGGAGGCNGAGGCAGGAGA; chemistry not given here) [APO 2] | did not see any loss of survivin protein | high activity, or had significant activity in both the protein and mRNA assays | did not cause a stress-induced increase in HIAP1 mRNA | ~50% | greatest block of CHX-induced upregulation of HIAP1 mRNA and protein | 50% | 
2 | TCTCACAGACGTTGGGCTT (chemistry not given here) [APO 6] |  |  | stress-induced increase in HIAP1 mRNA |  |  |  | evidence of toxicity
